# Measured values: PubChem BioAssay (NCI)
#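 Assay format: 96-well plates, 48-hour exposure. Here, GI50 denotes the concentration required for 50% inhibition of growth. TGI marks complete inhibition of growth.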
# Columns and labels:
# Experiment in all cases: DTP human tumour cell line panel, 48 h
# MDA-MB-231 breast = tested on: MDA-MB-231 breast
# SK-MEL-2 melanoma = tested on: SK-MEL-2 melanoma
# HL-60(TB) leukemia = tested on: HL-60(TB) leukemia
# SK-OV-3 ovarian = tested on: SK-OV-3 ovarian
# RPMI-8226 leukemia = tested on: RPMI-8226 leukemia
# SW-620 colon = tested on: SW-620 colon
# SK-MEL-28 melanoma = tested on: SK-MEL-28 melanoma
# NCI-H226 lung = tested on: NCI-H226 lung
# U251 CNS = tested on: U251 CNS
# PC-3 prostate = tested on: PC-3 prostate
# UACC-257 melanoma = tested on: UACC-257 melanoma
# DU-145 prostate = tested on: DU-145 prostate
# BT-549 breast = tested on: BT-549 breast
# SF-268 CNS = tested on: SF-268 CNS
# A498 renal = tested on: A498 renal
# 786-0 renal = tested on: 786-0 renal
# CAKI-1 renal = tested on: CAKI-1 renal
# NCI/ADR-RES ovarian = tested on: NCI/ADR-RES ovarian
# HCC-2998 colon = tested on: HCC-2998 colon
# MDA-MB-435 = tested on: MDA-MB-435
# LOX IMVI melanoma = tested on: LOX IMVI melanoma
# MCF7 breast = tested on: MCF7 breast
# SF-295 CNS = tested on: SF-295 CNS
# ACHN renal = tested on: ACHN renal
# SNB-75 CNS = tested on: SNB-75 CNS
# SN12C renal = tested on: SN12C renal
# OVCAR-8 ovarian = tested on: OVCAR-8 ovarian
# NCI-H522 lung = tested on: NCI-H522 lung
# SK-MEL-5 melanoma = tested on: SK-MEL-5 melanoma
# T-47D breast = tested on: T-47D breast
# HOP-92 NSCLC = tested on: HOP-92 NSCLC
# TK-10 renal = tested on: TK-10 renal
# SNB-19 CNS = tested on: SNB-19 CNS
# HCT-15 colon = tested on: HCT-15 colon
# IGROV1 ovarian = tested on: IGROV1 ovarian
# EKVX NSCLC = tested on: EKVX NSCLC
# OVCAR-3 ovarian = tested on: OVCAR-3 ovarian
# MALME-3M melanoma = tested on: MALME-3M melanoma
# RXF 393 renal = tested on: RXF 393 renal
# CCRF-CEM leukemia = tested on: CCRF-CEM leukemia
# NCI-H460 lung = tested on: NCI-H460 lung
# M14 melanoma = tested on: M14 melanoma
# HS 578T breast = tested on: HS 578T breast
smiles,measurement,setting,value
Cc1ccc(NC(=O)c2cc(/C=C/C(=O)NO)cc(C(F)(F)F)c2)cc1Nc1nccc(-c2cccnc2)n1,GI50,MDA-MB-231 breast,1.14 µM
same,TGI,MDA-MB-231 breast,4.51 µM
same,GI50,SK-MEL-2 melanoma,1.09 µM
same,TGI,SK-MEL-2 melanoma,3.32 µM
same,GI50,HL-60(TB) leukemia,1.08 µM
same,TGI,HL-60(TB) leukemia,3.73 µM
same,GI50,SK-OV-3 ovarian,1.83 µM
same,TGI,SK-OV-3 ovarian,3.78 µM
same,GI50,RPMI-8226 leukemia,2.11 µM
same,TGI,RPMI-8226 leukemia,8.76 µM
same,GI50,SW-620 colon,1.54 µM
same,TGI,SW-620 colon,5.66 µM
same,GI50,SK-MEL-28 melanoma,1.56 µM
same,TGI,SK-MEL-28 melanoma,5.27 µM
same,GI50,NCI-H226 lung,1.78 µM
same,TGI,NCI-H226 lung,5.09 µM
same,GI50,U251 CNS,1.49 µM
same,TGI,U251 CNS,3.03 µM
same,GI50,PC-3 prostate,3.02 µM
same,TGI,PC-3 prostate,> 100 µM
same,GI50,UACC-257 melanoma,1.32 µM
same,TGI,UACC-257 melanoma,2.8 µM
same,GI50,DU-145 prostate,2.04 µM
same,TGI,DU-145 prostate,6.63 µM
same,GI50,BT-549 breast,3.3 µM
same,TGI,BT-549 breast,8.5 µM
same,GI50,SF-268 CNS,2.35 µM
same,TGI,SF-268 CNS,5.7 µM
same,GI50,A498 renal,3.13 µM
same,TGI,A498 renal,6.65 µM
same,GI50,786-0 renal,2.41 µM
same,TGI,786-0 renal,5.31 µM
same,GI50,CAKI-1 renal,2.23 µM
same,TGI,CAKI-1 renal,5.14 µM
same,GI50,NCI/ADR-RES ovarian,44 µM
same,TGI,NCI/ADR-RES ovarian,> 100 µM
same,GI50,HCC-2998 colon,1.76 µM
same,TGI,HCC-2998 colon,3.56 µM
same,GI50,MDA-MB-435,1.53 µM
same,TGI,MDA-MB-435,4.24 µM
same,GI50,LOX IMVI melanoma,1.35 µM
same,TGI,LOX IMVI melanoma,3.02 µM
same,GI50,MCF7 breast,1.75 µM
same,TGI,MCF7 breast,5.85 µM
same,GI50,SF-295 CNS,1.77 µM
same,TGI,SF-295 CNS,3.43 µM
same,GI50,ACHN renal,3.12 µM
same,TGI,ACHN renal,> 100 µM
same,GI50,SNB-75 CNS,2.66 µM
same,TGI,SNB-75 CNS,5.83 µM
same,GI50,SN12C renal,2.54 µM
same,TGI,SN12C renal,> 100 µM
same,GI50,OVCAR-8 ovarian,1.44 µM
same,TGI,OVCAR-8 ovarian,4.68 µM
same,GI50,NCI-H522 lung,1.35 µM
same,TGI,NCI-H522 lung,3.19 µM
same,GI50,SK-MEL-5 melanoma,1.57 µM
same,TGI,SK-MEL-5 melanoma,3.01 µM
same,GI50,T-47D breast,1.41 µM
same,TGI,T-47D breast,5.8 µM
same,GI50,HOP-92 NSCLC,0.58 µM
same,TGI,HOP-92 NSCLC,2.71 µM
same,GI50,TK-10 renal,2.98 µM
same,TGI,TK-10 renal,6.91 µM
same,GI50,SNB-19 CNS,2.7 µM
same,TGI,SNB-19 CNS,7.62 µM
same,GI50,HCT-15 colon,3.34 µM
same,TGI,HCT-15 colon,> 100 µM
same,GI50,IGROV1 ovarian,1.74 µM
same,TGI,IGROV1 ovarian,4.36 µM
same,GI50,EKVX NSCLC,3.48 µM
same,TGI,EKVX NSCLC,> 100 µM
same,GI50,OVCAR-3 ovarian,1.52 µM
same,TGI,OVCAR-3 ovarian,4.21 µM
same,GI50,MALME-3M melanoma,0.58 µM
same,TGI,MALME-3M melanoma,3.24 µM
same,GI50,RXF 393 renal,1.66 µM
same,TGI,RXF 393 renal,3.65 µM
same,GI50,CCRF-CEM leukemia,0.559 µM
same,TGI,CCRF-CEM leukemia,> 100 µM
same,GI50,NCI-H460 lung,2 µM
same,TGI,NCI-H460 lung,12.3 µM
same,GI50,M14 melanoma,1.34 µM
same,TGI,M14 melanoma,3.71 µM
same,GI50,HS 578T breast,1.83 µM
same,TGI,HS 578T breast,6.35 µM
